How the values were obtained:
[1] = system: plasmid DNA (pDNA); assay: Gel shift (mobility shift) assay of pDNA complexation; type: binding; conditions: pDNA:molecule ratio 3:24 (w:w), 0.8% agarose gel, compared to pDNA alone
Method: Then, 10 μl of pDNA:TLR7-TLR2 polyamine molecule complexes and 2 μl of charge buffer were mixed and loaded into wells of a 0.8% agarose gel. Samples were migrated through the gel in TAE buffer under 135 voltage for 21 mins and the migration of the pDNA was visualized following ethidium bromide staining under UV light. The ability of TLR7-TLR2 polyamine molecules to complex/associate with the pDNA was identified by partial or complete retardation of the pDNA migration toward the anode in the gel compared to pDNA alone. […] Ethidium bromide intercalation of pDNA in complex with molecules allowed visualization of complexed pDNA as a smear in the wells of the gel.

[2] = system: endogenous TLR2 and TLR7 in RAW-Blue™ Cells; assay: RAW-Blue Cells NF-κB/AP-1 SEAP reporter assay; type: cell-based, mouse; conditions: 24 hours, OD at 655 nm, FIG. 4
Method: (§1) Cell-based assays were carried out using TLR7 and TLR2 reporter cell lines (InvivoGen). The reporter cell lines are engineered HEK293 cells, a human embryonic kidney cell line (ATCC, CRL-1573) that stably express either murine TLR7 (HEK-Blue™ mTLR7) or human TLR7 (HEK-Blue™ hTLR7) or human TLR2 (HEK-Blue™ hTLR2) with an NF-κB-inducible secreted embryonic alkaline phosphatase (SEAP) as the reporter gene. The SEAP reporter gene is under the control of the NF-κB and AP-1-inducible promoter, which, upon treatment with a corresponding TLR ligand and activation of NF-κB and AP-1, induces the production of SEAP. Detection of SEAP is measured following culturing cells in HEK-Blue™ Detection media (InvivoGen). HEK-Blue™ Detection contains a SEAP substrate that when hydrolysed by SEAP produces a colorimetric change allowing for detection of SEAP as the protein is secreted. […] These assays were carried out using RAW-Blue™ Cells (InvivoGen), derived from RAW 264.7 mouse leukemic monocyte macrophage cell line (ATCC, CRL 2278) stably overexpressing a NF-B/AP-1 inducible SEAP reporter constructs.
(§2) To perform the assay, cells were seeded on 96 well microliter plates at 50,000 or 100,000 cells per well for HEK-Blue™ Cells and RAW-Blue™ Cells respectively, and cultured at 37° C. in the presence of the conjugated compounds The TLR7-TLR2 polyamine molecules were prepared as follows: First, stock solutions of the conjugated compounds of the invention were prepared in ethanol or water to a concentration of 10 mg/ml.
(§3) The working dilutions of the conjugated TLR7-TLR2 polyamine agonists made up in water or PBS were directly added to the reporter cell lines at a final concentration ranging from 10 μg/mL to 10 pg/ml and incubated at 37° C. for 24 hours. After 24 hours of incubation, the effect on reporter gene activity was determined by reading the OD at 655 nm using iMark™ Microplate Reader (BIO-RAD).

[3] = molecular target: T1, human TLR2 (Homo sapiens, UniProt O60603); assay: HEK-Blue hTLR2 NF-κB/AP-1 SEAP reporter assay; type: cell-based; conditions: HEK-Blue hTLR2 cells, 10 μg/mL to 10 pg/ml, 24 hours, OD at 655 nm, FIG. 3
T1 construct: host or cells: HEK293 (HEK-Blue™ hTLR2)
T1 sequence (O60603 21-784): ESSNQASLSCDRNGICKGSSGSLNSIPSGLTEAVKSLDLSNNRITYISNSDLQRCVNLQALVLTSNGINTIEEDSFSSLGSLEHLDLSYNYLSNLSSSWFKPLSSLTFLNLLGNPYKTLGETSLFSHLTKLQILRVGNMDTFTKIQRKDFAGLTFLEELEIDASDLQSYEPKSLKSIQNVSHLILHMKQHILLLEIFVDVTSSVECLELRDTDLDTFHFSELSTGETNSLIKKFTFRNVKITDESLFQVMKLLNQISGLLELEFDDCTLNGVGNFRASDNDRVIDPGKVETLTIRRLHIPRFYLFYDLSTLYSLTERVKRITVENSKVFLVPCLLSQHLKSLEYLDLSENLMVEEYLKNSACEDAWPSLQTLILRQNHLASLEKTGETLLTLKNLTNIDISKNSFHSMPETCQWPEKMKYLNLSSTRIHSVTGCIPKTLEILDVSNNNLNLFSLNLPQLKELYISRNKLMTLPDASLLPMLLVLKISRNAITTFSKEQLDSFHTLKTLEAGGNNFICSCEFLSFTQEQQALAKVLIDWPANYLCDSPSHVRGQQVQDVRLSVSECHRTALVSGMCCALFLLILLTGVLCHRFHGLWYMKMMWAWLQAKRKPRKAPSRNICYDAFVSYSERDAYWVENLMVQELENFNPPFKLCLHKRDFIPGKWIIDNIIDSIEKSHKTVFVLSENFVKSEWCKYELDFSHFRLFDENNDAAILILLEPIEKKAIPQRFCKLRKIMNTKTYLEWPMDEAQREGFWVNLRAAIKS
Method: as §1, §2, §3

[4] = molecular target: T2, human TLR7 (Homo sapiens, UniProt Q9NYK1); assay: HEK-Blue hTLR7 NF-κB/AP-1 SEAP reporter assay; type: cell-based; conditions: HEK-Blue hTLR7 cells, 10 μg/mL to 10 pg/ml, 24 hours, OD at 655 nm, FIG. 1
T2 construct: host or cells: HEK293 (HEK-Blue™ hTLR7)
T2 sequence (Q9NYK1 27-1049): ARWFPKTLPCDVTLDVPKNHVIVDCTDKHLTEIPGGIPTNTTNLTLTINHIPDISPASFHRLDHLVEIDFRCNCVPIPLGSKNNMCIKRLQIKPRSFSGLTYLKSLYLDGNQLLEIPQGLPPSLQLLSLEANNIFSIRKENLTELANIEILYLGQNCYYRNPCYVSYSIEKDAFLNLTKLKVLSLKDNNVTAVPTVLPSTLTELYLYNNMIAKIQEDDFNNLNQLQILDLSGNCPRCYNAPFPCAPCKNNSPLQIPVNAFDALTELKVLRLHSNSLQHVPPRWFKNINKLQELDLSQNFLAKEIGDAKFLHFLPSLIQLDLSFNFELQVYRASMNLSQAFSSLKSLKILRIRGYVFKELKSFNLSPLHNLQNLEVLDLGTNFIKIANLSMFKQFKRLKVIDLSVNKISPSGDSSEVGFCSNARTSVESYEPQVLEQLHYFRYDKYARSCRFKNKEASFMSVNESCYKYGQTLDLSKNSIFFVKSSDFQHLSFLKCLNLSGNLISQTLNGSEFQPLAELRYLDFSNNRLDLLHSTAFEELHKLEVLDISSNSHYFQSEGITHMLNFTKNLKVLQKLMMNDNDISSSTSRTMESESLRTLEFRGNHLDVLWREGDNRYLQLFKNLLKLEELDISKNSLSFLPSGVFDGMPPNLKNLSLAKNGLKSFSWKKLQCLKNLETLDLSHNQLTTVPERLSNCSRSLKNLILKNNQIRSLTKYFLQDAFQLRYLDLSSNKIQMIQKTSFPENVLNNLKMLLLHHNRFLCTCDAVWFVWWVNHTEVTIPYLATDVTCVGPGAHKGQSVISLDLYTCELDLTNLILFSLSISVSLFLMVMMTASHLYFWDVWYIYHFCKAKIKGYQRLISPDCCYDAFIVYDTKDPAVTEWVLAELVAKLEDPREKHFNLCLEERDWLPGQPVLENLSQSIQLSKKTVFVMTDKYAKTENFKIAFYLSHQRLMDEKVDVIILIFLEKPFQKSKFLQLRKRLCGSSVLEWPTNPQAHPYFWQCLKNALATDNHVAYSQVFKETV
Method: as §1, §2, §3

[5] = molecular target: T3, murine TLR7 (Mus musculus, UniProt P58681); assay: HEK-Blue mTLR7 NF-κB/AP-1 SEAP reporter assay; type: cell-based; conditions: HEK-Blue mTLR7 cells, 10 μg/mL to 10 pg/ml, 24 hours, OD at 655 nm, FIG. 2
T3 construct: host or cells: HEK293 (HEK-Blue™ mTLR7)
T3 sequence (P58681 27-1050): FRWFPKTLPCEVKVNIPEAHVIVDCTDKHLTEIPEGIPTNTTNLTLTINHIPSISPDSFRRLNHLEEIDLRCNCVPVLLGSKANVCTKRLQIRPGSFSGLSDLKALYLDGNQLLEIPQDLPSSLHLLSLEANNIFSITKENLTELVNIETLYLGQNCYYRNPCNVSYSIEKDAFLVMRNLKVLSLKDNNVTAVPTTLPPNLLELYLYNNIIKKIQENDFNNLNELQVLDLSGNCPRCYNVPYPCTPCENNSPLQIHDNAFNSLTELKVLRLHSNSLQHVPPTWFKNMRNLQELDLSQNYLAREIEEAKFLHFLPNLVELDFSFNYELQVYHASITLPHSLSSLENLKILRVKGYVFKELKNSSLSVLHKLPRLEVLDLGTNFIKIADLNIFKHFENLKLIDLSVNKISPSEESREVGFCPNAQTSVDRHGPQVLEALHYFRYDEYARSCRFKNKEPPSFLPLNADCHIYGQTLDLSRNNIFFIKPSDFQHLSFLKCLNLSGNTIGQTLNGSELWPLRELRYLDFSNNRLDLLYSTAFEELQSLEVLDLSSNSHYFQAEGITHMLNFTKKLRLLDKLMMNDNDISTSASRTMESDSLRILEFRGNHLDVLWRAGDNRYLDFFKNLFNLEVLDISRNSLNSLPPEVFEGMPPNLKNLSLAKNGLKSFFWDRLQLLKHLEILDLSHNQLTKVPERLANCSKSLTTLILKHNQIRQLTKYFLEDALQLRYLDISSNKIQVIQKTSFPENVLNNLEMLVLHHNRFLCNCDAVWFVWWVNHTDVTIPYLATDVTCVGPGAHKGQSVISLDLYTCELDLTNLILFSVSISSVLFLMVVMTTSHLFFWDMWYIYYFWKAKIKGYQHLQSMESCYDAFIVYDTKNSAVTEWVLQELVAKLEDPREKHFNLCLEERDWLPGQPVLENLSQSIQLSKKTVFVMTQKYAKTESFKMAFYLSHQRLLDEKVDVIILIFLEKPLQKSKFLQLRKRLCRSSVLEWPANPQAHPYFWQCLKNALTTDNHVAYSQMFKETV
Method: as §1, §2, §3

Compound	ability to complex pDNA (retardation of pDNA migration in agarose gel) [1]	ability to activate endogenous TLR2 and TLR7 in RAW-Blue Cells [2]	ability to activate hTLR2 [3]	ability to activate hTLR7 [4]	ability to activate mTLR7 [5]
CCCCCCCCCCCCCCCC(=O)OCC(CSC[C@H](N)C(=O)Nc1ccc(Cn2c(O)nc3c(N)nc(NCCCC)nc32)cc1)OC(=O)CCCCCCCCCCCCCCC (stereo partly drawn) [CL401, reference compound]	lacks the ability to complex pDNA	–	–	–	–
CCCCCCCCCCCCCCCC(=O)OCC(CSC[C@H](N)C(=O)N[C@@H](CO)C(=O)N[C@@H](CCCCN)C(=O)N[C@@H](CCCCN)C(=O)N[C@@H](CCCCNC(=O)c1ccc(Cn2c(O)nc3c(N)nc(NCCCC)nc32)cc1)C(=O)N[C@@H](CCCCN)C(=O)O)OC(=O)CCCCCCCCCCCCCCC (stereo partly drawn) [CL530, (2S,5S,8S,11S,14S,17R)-17-amino-5-(4-(4-((6-amino-2-(butylamino)-8-hydroxy-9H-purin-9-yl)methyl)benzamido)butyl)-2,8,11-tris(4-aminobutyl)-14-(hydroxymethyl)-4,7,10,13,16,24-hexaoxo-21-(palmitoyloxy)-23-oxa-19-thia-3,6,9,12,15-pentaaza nonatriacontan-1-oic acid]	inability to migrate through an agarose gel	activate endogenous TLR2 and TLR7	activate hTLR2	activate hTLR7	activate mTLR7
CCCCCCCCCCCCCCCC(=O)OCC(CSC[C@H](N)C(=O)N[C@@H](CO)C(=O)N[C@@H](CCCCN)C(=O)N[C@@H](CCCCNC(=O)c1ccc(Cn2c(O)nc3c(N)nc(NCCCC)nc32)cc1)C(=O)N[C@@H](CCCCN)C(=O)N[C@@H](CCCCN)C(=O)O)OC(=O)CCCCCCCCCCCCCCC (stereo partly drawn) [CL531, (2S,5S,8S,11S,14S,17R)-17-amino-8-(4-(4-((6-amino-2-(butylamino)-8-hydroxy-9H-purin-9-yl)methyl)benzamido)butyl)-2,5,11-tris(4-aminobutyl)-14-(hydroxymethyl)-4,7,10,13,16,24-hexaoxo-21-(palmitoyloxy)-23-oxa-19-thia-3,6,9,12,15-pentaaza nonatriacontan-1-oic acid]	inability to migrate through an agarose gel	activate endogenous TLR2 and TLR7	activate hTLR2	activate hTLR7	activate mTLR7
CCCCCCCCCCCCCCCC(=O)OCC(CSC[C@H](N)C(=O)N[C@@H](CO)C(=O)N[C@@H](CCCCNC(=O)c1ccc(Cn2c(O)nc3c(N)nc(NCCCC)nc32)cc1)C(=O)N[C@@H](CCCCN)C(=O)N[C@@H](CCCCN)C(=O)N[C@@H](CCCCN)C(=O)O)OC(=O)CCCCCCCCCCCCCCC (stereo partly drawn) [CL533, (2S,5S,8S,11S,14S,17R)-17-amino-11-(4-(4-((6-amino-2-(butylamino)-8-hydroxy-9H-purin-9-yl)methyl)benzamido)butyl)-2,5,8-tris(4-aminobutyl)-14-(hydroxylmethyl)-4,7,10,13,16,24-hexaoxo-21-(palmitoyloxy)-23-oxa-19-thia-3,6,9,12,15-pentaazanonatria contan-1-oic acid]	inability to migrate through an agarose gel	activate endogenous TLR2 and TLR7	activate hTLR2	activate hTLR7	activate mTLR7
CCCCCCCCCCCCCCCC(=O)N[C@@H](CSCC(COC(=O)CCCCCCCCCCCCCCC)OC(=O)CCCCCCCCCCCCCCC)C(=O)N[C@@H](CO)C(=O)N[C@@H](CCCCN)C(=O)N[C@@H](CCCCN)C(=O)N[C@@H](CCCCNC(=O)c1ccc(Cn2c(O)nc3c(N)nc(NCCCC)nc32)cc1)C(=O)N[C@@H](CCCCN)C(=O)O (stereo partly drawn) [CL535, (2S,5S,8S,11S,14S,17R)-5-(4-(4-((6-amino-2-(butylamino)-8-hydroxy-9H-purin-9-yl)methyl)benzamido)butyl)-2,8,11-tris(4-aminobutyl)-14-(hydroxymethyl)-4,7,10,13,16,24-hexaoxo-17-palmitamido-21-(palmitoyloxy)-23-oxa-19-thia-3,6,9,12,15-pentaazanonatriacontan-1-oic acid]	inability to migrate through an agarose gel	activate endogenous TLR2 and TLR7	activate hTLR2	activate hTLR7	activate mTLR7

From US9295732B2, “Conjugated TLR7 and/or TLR8 and TLR2 polycationic agonists” (CAYLA, priority 2013, dated 2016)
